{"source": "patent US20240024307A1", "about": "“PHARMACEUTICAL COMBINATION OF A CORTICOSTEROID AND AN ANTIHISTAMINE FOR THE TREATMENT AND CONTROL OF THE INFLAMMATORY COMPONENT OF ALLERGIC PROCESSES” (priority 2020, published 2024)", "key": {"[1]": {"test": "Comparative bioavailability study, 5 mg desloratadine and 0.25 mg betamethasone alone or in combination, single dose, healthy subjects, fasting", "conditions": "analyte desloratadine, 5 mg single dose", "excerpt": "The study design was crossover, 3×6×3 open, prospective, and longitudinal, truncated to single dose.\nThree treatments, three periods, six sequences with an elimination period of 14 days and with a total of 24 healthy subjects of both genders, in fasting conditions."}, "[2]": {"conditions": "40° C. and 75% RH; alone or in combination with various excipients; cited from earlier work"}}, "data": [{"molecule": "Clc1ccc2c(c1)CCc1cccnc1C2=C1CCNCC1", "note": "[Desloratadine, desloratadine]", "values": [{"measurement": "Elimination constant Ke", "setting": "[1]", "result": "0.0408 ± 0.009", "unit": "h⁻¹"}, {"measurement": "colour stability", "setting": "[2]", "result": "exhibits color changes"}]}]}
